Some results are limits rather than exact numbers.

The subject of experiment [1] is PC-3. Kind of experiment: Antiproliferative activity against androgen-insensitive human PC-3 cells assessed as reduction in cell viability incubated for 3 days by WST-1 assay. In kind it is functional, cell-based. Particulars: PC-3, 72 h.
Experiment [2] deals with DU-145. Kind of experiment: Antiproliferative activity against androgen-insensitive human DU-145 cells assessed as reduction in cell viability incubated for 3 days by WST-1 assay. It counts as functional, cell-based. Particulars: DU-145, 72 h.
In the next experiment the test system is LNCaP. The experiment can be described thus: Antiproliferative activity against androgen-insensitive human LNCaP cells assessed as reduction in cell viability incubated for 3 days by WST-1 assay. Particulars: 72 h. It counts as functional, cell-based.
Experiment [3] relates to PC-3. Kind of experiment: Antiproliferative activity against Docetaxel-resistant human PC-3 cells assessed as reduction in cell viability incubated for 3 days by WST-1 assay. In kind it is functional, cell-based. Particulars: PC-3, 72 h.
Experiment [4] deals with DU-145. The experiment can be described thus: Antiproliferative activity against Docetaxel-resistant human DU-145 cells assessed as reduction in cell viability incubated for 3 days by WST-1 assay. Particulars: DU-145, 72 h. It counts as functional, cell-based.
Experiment [5] is described as follows: Resistance index, ratio of IC50 for antiproliferative activity against human PC-3/DTX cells to IC50 for antiproliferative activity against human PC-3 cells. It counts as functional.
Experiment [6] in a line: Resistance index, ratio of IC50 for antiproliferative activity against human DU145/DTX cells to IC50 for antiproliferative activity against human DU145 cells. In kind it is functional.

With `C/C1=C/C=C/C(=O)N[C@@H](CO)C/C(C)=C/COCC/C=C/C(=O)C1`, the IC50 in the experiment on PC-3 [1] was over 12.5 µM; with DU-145 [2] it was 11.1 µM; with LNCaP, over 12.5 µM; with PC-3 [3] it was over 12.5 µM; in the experiment with DU-145 [4], over 12.5 µM.
`C/C1=C/C=C/C(=O)N[C@@H](C=O)C/C(C)=C/COCC/C=C/C(=O)C1`: the concentration for half-maximal inhibition (IC50) in the experiment on PC-3 [1] stood at 9.76 µM; in the experiment with DU-145 [2], 8.48 µM; in the experiment on LNCaP, 10.9 µM; in the experiment on PC-3 [3] it was 10.2 µM; with DU-145 [4] it was 10.2 µM. The figures for the “Ratio IC50” value in experiment [5] and in experiment [6] were 1.05 and 1.2, respectively.
Take `COc1ccc(COC[C@H]2C/C(C)=C/COCC/C=C/C(=O)C/C(C)=C\C=C\C(=O)N2)cc1`: the IC50 in the experiment with PC-3 [1] was determined as 7.7 µM; in the experiment with DU-145 [2] it was 4.87 µM; with LNCaP it was 6.26 µM; in the experiment with PC-3 [3] it was 4.4 µM; with DU-145 [4] it was 7.36 µM. The figures for the “Ratio IC50” value in experiment [5] and in experiment [6] were 0.57 and 1.51, respectively.
As for `CC(=O)O[C@@]12CO[C@@H]1C[C@H](O)[C@@]1(C)C(=O)[C@H](O)C3=C(C)[C@@H](OC(=O)[C@H](O)[C@@H](NC(=O)OC(C)(C)C)c4ccccc4)C[C@@](O)([C@@H](OC(=O)c4ccccc4)[C@H]21)C3(C)C` [DOCETAXEL ANHYDROUS], the IC50 in the experiment with PC-3 [3] was determined as 2.34 µM.

The values above are taken from ChEMBL document CHEMBL4819058, “An amide mimic of desTHPdactylolide: Total synthesis and antiproliferative evaluation” (Bioorg Med Chem Lett, 2021).
